Results on two compounds are retold here after paper PMC5829162, “Rational Design, Synthesis and Biological Evaluation of Pyrimidine-4,6-diamine derivatives as Type-II inhibitors of FLT3 Selective Against c-KIT” (Scientific Reports, 2018).

One test deals with T1, FLT3D835Y (Homo sapiens, UniProt P36888, D835Y).
T1 construct: the biochemical assay only contains the kinase domain with a single, D835Y point mutation
T1 sequence (P36888 610-943 D835Y limits assumed): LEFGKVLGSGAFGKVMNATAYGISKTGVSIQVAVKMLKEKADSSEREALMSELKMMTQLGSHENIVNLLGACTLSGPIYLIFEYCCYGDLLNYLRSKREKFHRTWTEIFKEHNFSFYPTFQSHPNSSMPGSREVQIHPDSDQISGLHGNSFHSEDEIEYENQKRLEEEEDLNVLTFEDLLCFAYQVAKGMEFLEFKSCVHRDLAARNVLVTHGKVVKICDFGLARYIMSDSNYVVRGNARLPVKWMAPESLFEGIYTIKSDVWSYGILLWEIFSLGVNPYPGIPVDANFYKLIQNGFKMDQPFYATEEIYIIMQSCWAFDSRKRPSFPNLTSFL
The test is described as follows: Biochemical kinase selectivity assay, FLT3 D835Y. The conditions noted are these: in vitro kinase assay; read-out: FLT3D835Y IC50 (nM) ± SD. The method, then: Kinase activity was measured in a microfluidics assay that monitors the separation of a phosphorylated product from substrate[31],[32]. The assay was run using a 12-sipper chip on a Caliper EZ Reader II (PerkinElmer®, Walthman, USA) with separation buffer (100 mM HEPES, 10 mM EDTA, 0.015% Brij-35, 0.1% CR-3 [PerkinElmer®, Walthman, USA]). In 96-well polypropylene plates (Greiner, Frickenhausen, Germany) compound stocks (20 mM in DMSO) were diluted into kinase buffer (50 mM HEPES, 0.075% Brij-35, 0.1% Tween 20, 2 mM DTT, 10 mM MgCl2, and 0.02% NaN3) in 12-point ½log dilutions (2 mM–6.32 nM). After, 1 μL was transferred into a 384-well polypropylene assay plate (Greiner, Frickenhausen, Germany). […] Percent inhibition was measured for each well comparing starting peptide to phosphorylated product peaks relative to the baseline. […] IC50 values were generated in duplicate and error was calculated from the standard deviation between values.
S10. Biochemical Inhibition Assay:1,2 Kinase activity was measured in a microfluidics assay that monitors the separation of a phosphorylated product from substrate. The assay was run using a 12-sipper chip on a Caliper EZ Reader II (PerkinElmer®, Walthman, USA) with separation buffer (100 mM HEPES, 10 mM EDTA, 0.015% Brij-35, 0.1% CR-3 [PerkinElmer®, Walthman, USA]). […]

For a further test, the target named is c-KIT (Homo sapiens, UniProt P10721). The test is described as follows: Biochemical kinase selectivity assay, c-KIT.
The subject of a further test is Ba/F3 FLT3-ITD. Nature of the test: Cell proliferation (CellTiter-Glo, 48 h), Ba/F3 FLT3-ITD. The class given is cell-based. The source says: (§1) Stable BaF3 populations expressing activated FLT3 were generated by retroviral spinfection with the appropriate mutated plasmid followed by selection and growth factor withdrawal as previously described. The BaF3 cell line was originally obtained from the laboratory of Charles Sawyers and has not been authenticated. MV411 and Molm14 cells were obtained from the laboratory of Scott Kogan and authenticated by Promega STR analysis in June 2013. All cell lines were mycoplasma-free. Cells were incubated with compounds for 48 hours and proliferation was assessed using CellTiter-Glo (Promega; Madison, WI) according to the manufacturer’s recommendation on a SpectraMax M3 microplate reader using SpectraMax Software (Molecular Devices; Sunnyvale, CA). All cell viability data shown is reflective of experiments performed a minimum of three times. […]
S13. Cell Cultures: Stable BaF3 populations expressing activated FLT3 were generated by retroviral spinfection with the appropriate mutated plasmid followed by selection and growth factor withdrawal as previously described .4 The BaF3 cell line was originally obtained from the laboratory of Charles Sawyers and has not been authenticated. MV411 and Molm14 cells were obtained from the laboratory of Scott Kogan and authenticated by Promega STR analysis in June
2013. All cell lines were mycoplasma -free. Cells were incubated with compounds for 48 hours and proliferation was assessed using CellTiter -Glo (Promega; Madison, WI) according to the manufacturer’s recommendation on a SpectraMax M3 microplate reader using SpectraMax Software (Molecular Devices; Sunnyvale, CA). All cell viability data shown is reflective of experiments performed a minimum of three times.

A further test concerns FLT3-driven cell lines. Nature of the test: Cell-based studies, FLT3-driven cell lines overall. Particulars: range over the FLT3 cell lines.
Source text: as §1
S13. […]
2013. […] Cells were incubated with compounds for 48 hours and proliferation was assessed using CellTiter -Glo (Promega; Madison, WI) according to the manufacturer’s recommendation on a SpectraMax M3 microplate reader using SpectraMax Software (Molecular Devices; Sunnyvale, CA). […]

Values joined by “and” are separate entries in the source; they are usually repeats but may differ in a detail not shown here. Equal entries are not always repeated. Where two headings read alike, the source gives them in different places. Bounds are passed on as bounds.

c-KIT, sequence (P10721 26-976): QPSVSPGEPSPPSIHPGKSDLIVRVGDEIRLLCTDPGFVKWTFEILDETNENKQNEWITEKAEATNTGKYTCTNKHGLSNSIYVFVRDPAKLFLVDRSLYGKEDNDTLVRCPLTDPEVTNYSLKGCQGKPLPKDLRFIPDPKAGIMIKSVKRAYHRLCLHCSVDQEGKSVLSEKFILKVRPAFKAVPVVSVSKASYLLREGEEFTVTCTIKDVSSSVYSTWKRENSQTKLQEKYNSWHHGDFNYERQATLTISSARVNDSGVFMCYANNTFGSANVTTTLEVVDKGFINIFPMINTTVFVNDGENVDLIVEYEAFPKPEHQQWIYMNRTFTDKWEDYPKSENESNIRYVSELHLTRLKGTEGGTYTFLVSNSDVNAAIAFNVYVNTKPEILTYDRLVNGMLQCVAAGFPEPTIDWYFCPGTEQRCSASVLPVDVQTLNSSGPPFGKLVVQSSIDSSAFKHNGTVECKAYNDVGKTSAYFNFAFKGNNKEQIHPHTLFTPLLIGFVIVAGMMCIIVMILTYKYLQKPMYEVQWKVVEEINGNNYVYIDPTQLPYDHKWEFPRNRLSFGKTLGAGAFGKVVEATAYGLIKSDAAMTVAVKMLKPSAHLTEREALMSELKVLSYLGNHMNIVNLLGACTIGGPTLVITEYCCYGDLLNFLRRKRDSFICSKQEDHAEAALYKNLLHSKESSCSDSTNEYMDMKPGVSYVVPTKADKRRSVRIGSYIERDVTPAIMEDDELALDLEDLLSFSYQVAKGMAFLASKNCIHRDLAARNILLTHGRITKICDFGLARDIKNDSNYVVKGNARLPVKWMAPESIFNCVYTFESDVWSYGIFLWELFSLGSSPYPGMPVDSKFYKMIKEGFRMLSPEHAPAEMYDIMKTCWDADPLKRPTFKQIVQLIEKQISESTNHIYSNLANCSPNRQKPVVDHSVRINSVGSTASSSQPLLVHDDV

With `Cn1nc(C(C)(C)C)cc1NC(=O)Cc1ccc(Nc2cc(Nc3ccc(S(C)(=O)=O)cc3)ncn2)cc1` [13a, 2-(4-(6-(4-(Methylsulfonyl)phenylamino)pyrimidin-4-ylamino)phenyl)-N-(3-tert-butyl-1-methyl-1H-pyrazol-5-yl)acetamide], the IC50 – broadly, the concentration that inhibits the measured activity by half – on FLT3D835Y was 72.5 nM and 72 nM; on c-KIT (as printed in Fig. 2, read-out: cKit IC50), 8800 nM; on c-KIT (in vitro kinase assay, read-out: c-KIT IC50 (nM) ± SD) it was 8800 nM. Further, the “selectivity for FLT3 over c-KIT” value at c-KIT (in vitro kinase assays) is greater than 500 fold. Besides, the values for the concentration for 50% growth inhibition (GI50) in the test on Ba/F3 FLT3-ITD and with FLT3-driven cell lines were 131 nM and 9 to 2000 nM, respectively.

On to `CC(C)(C)c1cc(NC(=O)Cc2ccc(Nc3cc(Nc4ccc(S(C)(=O)=O)cc4)ncn3)cc2)no1` [13k, 2-(4-(6-(4-(Methylsulfonyl)phenylamino)pyrimidin-4-ylamino)phenyl)-N-(5-tert-butylisoxazol-3-yl)acetamide], for which the IC50 at FLT3D835Y came to 13700 ± 234 nM. Moreover, halving of growth with Ba/F3 FLT3-ITD (GI50) required 40.5 nM.
